Measurements reported in patent US20240336566A1, “CRYSTALLINE FORMS OF A COMPOUND FOR THE TARGETED DEGRADATION OF THE ANDROGEN RECEPTOR” (Arvinas Operations, Inc., priority 2023, published 2024).
One block for each compound: values may come before it.

What was measured:
Assay type in all cases: physicochemical
[1] = Co-crystal screen: XRPD post temperature cycling and post storage at 40° C./75% RH;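 as to XRPD results, primary co-crystal screen post temperature cycling: value is the Compound A free base XRPD pattern number and 9 means a potential new one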; settings: for XRPD results, primary co-crystal screen post storage at 40° C./75% RH / XRPD results, primary co-crystal screen post temperature cycling: Compound A + 1.05 eq. co-former (= label); for XRPD form post storage at 40° C./75% RH: ca. 24 or ca. 30 hours
[2] = 7-day stability assessment (appearance, HPLC, XRPD); settings: for Reported Purity / Total impurities: HPLC
Procedure: The material was gently ground to release any agglomerates and loaded onto a multi-well plate with Kapton or Mylar polymer film to support the sample. […] Data were visualized and images generated using the HighScore Plus 4.7 desktop application (PANalytical, 2θ17).
They all remained white or off-white solids. • XRPD analysis determined the patterns were retained.

[3] = Primary crystallization screen: XRPD before and after drying at 40° C.; settings: dried at 40° C. for approximately 18 h
Procedure: • 34×40 mg of Compound A was weighed into vials before the selected solvents were added to prepare slurries, where possible. See Table 29 for a list of solvent systems used and the volume of solvent used. • Stirrer bars were added to the vials, before the vials were sealed and temperature cycled with stirring between 5° C. and 40° C. The heating rate was 0.1° C./min and the samples were held at 5° C. and 40° C. for 2 hours. • After temperature cycling for 4 days, observations were made (see Table 29). Slurries were centrifuge filtered and the solids were analyzed by XRPD • The solids were dried at 40° C. for approximately 18 h before being re-analyzed by XRPD. • Saturated solutions were then split into 3 vials for the following experiments • Evaporation at ambient temperature • Cooling (5° C.). • Where no solids were obtained after 72 hours, the samples were moved to the freezer at −20° C. for further cooling. • Where no solids were obtained from further cooling, the samples were allowed to evaporate at ambient temperature. • Anti-solvent addition at ambient temperature. • Where no solids were obtained after 72 hours the samples were moved to the freezer at −20° C. to encourage crystallization. • Where no solids were obtained from cooling, the samples were allowed to evaporate at ambient temperature.

[4] = Primary salt screen: XRPD post temperature cycling/evaporation, post drying and post storage at 40° C./75% RH; settings: Compound A + 1.05 eq. counterion (= label); for XRPD results post drying: dried under vacuum at 40° C.; for XRPD results post 40° C./75% RH: stored ca. 20 hours
Procedure: • 30 mg samples of Compound A were weighed out into 2 mL screw cap sample vials for 96 experiments. To these, 200 μL of the appropriate solvent system was added to dissolve the material or form a slurry. See Table 16 for the solvent systems selected for the primary salt screen.
• 1.05 eq. of solid counterions were weighed into six separate vials each and 1 molar stock solutions were prepared for liquid counterions in 5 mL of THF. See Table 17 for selected counterions and mass/volume needed for 1.05 eq. additions. • 100 μL of the appropriate solvent was added to the solid counterions.
The solution/slurry of counterion was added to the solution/slurry of the free base material.
• The samples were placed in an incubator shaker to temperature cycle between ambient and 40° C. over 4 hour cycles. • After ca. 72 hours of temperature cycling, observations were noted, see Table 19.
• Where slurries were obtained, the solids were isolated via centrifugation. Solids and gels were analyzed by XRPD.
Any samples that were clear solutions after temperature cycling were left to evaporate at ambient conditions. See Table 20 for observations made after evaporation. Solids obtained through evaporation were analyzed by XRPD.
• The samples obtained from temperature cycling were dried under vacuum at 40° C. for ca. 20 hours while the samples obtained from evaporation were dried under vacuum at 40° C. for ca. 4 hours. […]

[5] = 7 days at 40° C./75% RH (open vial)
[6] = 7 days at Ambient light (closed vial)
[7] = input material before storage (baseline of the stability assessment)

Structure (SMILES): N[C@@H](Cc1c[nH]cn1)C(=O)O [L-Histidine]
XRPD results, primary co-crystal screen post storage at 40° C./75% RH ([1]; 1,4-Dioxane): 4
XRPD results, primary co-crystal screen post temperature cycling ([1]; 1,4-Dioxane): 9
XRPD results, primary co-crystal screen post storage at 40° C./75% RH ([1]; DCM:Methanol (50:50 % v/v)): 2
XRPD results, primary co-crystal screen post temperature cycling ([1]; DCM:Methanol (50:50 % v/v)): 2
XRPD results, primary co-crystal screen post storage at 40° C./75% RH ([1]; THF): 1
XRPD results, primary co-crystal screen post temperature cycling ([1]; THF): 1

Structure (SMILES): N[C@@H](Cc1ccccc1)C(=O)O [L-Phenylalanine]
XRPD results, primary co-crystal screen post storage at 40° C./75% RH ([1]; 1,4-Dioxane): 4
XRPD results, primary co-crystal screen post temperature cycling ([1]; 1,4-Dioxane): 9

Structure (SMILES): O=C(O)[C@@H]1CCCN1 [L-Proline]
XRPD results, primary co-crystal screen post storage at 40° C./75% RH ([1]; 1,4-Dioxane): 4
XRPD results, primary co-crystal screen post temperature cycling ([1]; 1,4-Dioxane): 9
XRPD results, primary co-crystal screen post storage at 40° C./75% RH ([1]; DCM:Methanol (50:50 % v/v)): 2
XRPD results, primary co-crystal screen post temperature cycling ([1]; DCM:Methanol (50:50 % v/v)): 2
XRPD results, primary co-crystal screen post storage at 40° C./75% RH ([1]; THF): 1
XRPD results, primary co-crystal screen post temperature cycling ([1]; THF): 1

Structure (SMILES): N[C@@H](Cc1c[nH]c2ccccc12)C(=O)O [L-Tryptophan]
XRPD results, primary co-crystal screen post temperature cycling ([1]; DCM:Methanol (50:50 % v/v)): 2

Structure (SMILES): N[C@@H](Cc1ccc(O)cc1)C(=O)O [L-Tyrosine]
XRPD results, primary co-crystal screen post storage at 40° C./75% RH ([1]; 1,4-Dioxane): 4
XRPD results, primary co-crystal screen post temperature cycling ([1]; 1,4-Dioxane): 9
XRPD results, primary co-crystal screen post storage at 40° C./75% RH ([1]; DCM:Methanol (50:50 % v/v)): 2
XRPD results, primary co-crystal screen post temperature cycling ([1]; DCM:Methanol (50:50 % v/v)): 2

Structure (SMILES): NC(=O)c1cccnc1 [Nicotinamide]
XRPD results, primary co-crystal screen post storage at 40° C./75% RH ([1]; 1,4-Dioxane): 4
XRPD results, primary co-crystal screen post temperature cycling ([1]; 1,4-Dioxane): 4
XRPD results, primary co-crystal screen post storage at 40° C./75% RH ([1]; DCM:Methanol (50:50 % v/v)): 2
XRPD results, primary co-crystal screen post temperature cycling ([1]; DCM:Methanol (50:50 % v/v)): 2
XRPD results, primary co-crystal screen post storage at 40° C./75% RH ([1]; DMSO:Water (50:50 % v/v)): 2
XRPD results, primary co-crystal screen post temperature cycling ([1]; DMSO:Water (50:50 % v/v)): 2
XRPD results, primary co-crystal screen post storage at 40° C./75% RH ([1]; THF): 1
XRPD results, primary co-crystal screen post temperature cycling ([1]; THF): 1

Structure (SMILES): NC(N)=O [Urea]
XRPD results, primary co-crystal screen post storage at 40° C./75% RH ([1]; 1,4-Dioxane): 4
XRPD results, primary co-crystal screen post temperature cycling ([1]; 1,4-Dioxane): 9
XRPD results, primary co-crystal screen post storage at 40° C./75% RH ([1]; DCM:Methanol (50:50 % v/v)): 2
XRPD results, primary co-crystal screen post temperature cycling ([1]; DCM:Methanol (50:50 % v/v)): 2
XRPD results, primary co-crystal screen post storage at 40° C./75% RH ([1]; THF): 1
XRPD results, primary co-crystal screen post temperature cycling ([1]; THF): 1

Structure (SMILES): Cc1ccc(S(=O)(=O)O)cc1 [p-Toluenesulfonic acid]
XRPD results post temperature cycling and evaporation ([4]; 1,4-Dioxane): A t
XRPD results post drying ([4]; 1,4-Dioxane): A t
XRPD results post 40° C./75% RH ([4]; 1,4-Dioxane): A t
XRPD results post temperature cycling and evaporation ([4]; DCM): A e
XRPD results post temperature cycling and evaporation ([4]; DCM:Methanol (50:50 % v/v)): A e
XRPD results post drying ([4]; DCM:Methanol (50:50 % v/v)): A e
XRPD results post 40° C./75% RH ([4]; DCM:Methanol (50:50 % v/v)): A e
XRPD results post drying ([4]; DCM): A e
XRPD results post 40° C./75% RH ([4]; DCM): A e
XRPD results post temperature cycling and evaporation ([4]; DMSO:Water (50:50 % v/v)): A t
XRPD results post drying ([4]; DMSO:Water (50:50 % v/v)): A t
XRPD results post 40° C./75% RH ([4]; DMSO:Water (50:50 % v/v)): A t
XRPD results post temperature cycling and evaporation ([4]; THF): S t
XRPD results post temperature cycling and evaporation ([4]; THF:Water (98:2 % v/v)): A e
XRPD results post drying ([4]; THF:Water (98:2 % v/v)): A e
XRPD results post 40° C./75% RH ([4]; THF:Water (98:2 % v/v)): A e

The remaining lines, values ahead:

XRPD results, primary co-crystal screen post storage at 40° C./75% RH ([1]; DCM:Methanol (50:50 % v/v)): 1
XRPD results, primary co-crystal screen post temperature cycling ([1]; DCM:Methanol (50:50 % v/v)): 1
XRPD results, primary co-crystal screen post storage at 40° C./75% RH ([1]; THF): 1
XRPD results, primary co-crystal screen post temperature cycling ([1]; THF): 1
Structure (SMILES): COC(=O)c1ccc(O)cc1 [Methylparaben]

HPLC purity [2, 5]: 98.37 % relative area
XRPD after stability storage [2, 5]: No change
HPLC purity ([2]; 7 days at 80° C. (closed vial)): 98.33 % relative area
XRPD after stability storage ([2]; 7 days at 80° C. (closed vial)): No change
HPLC purity [2, 6]: 98.27 % relative area
XRPD after stability storage [2, 6]: No change
Reported Purity ([2]; after 7 days at 40° C./75% RH): 98.37 Area %
Total impurities ([2]; after 7 days at 40° C./75% RH): 1.63 Area %
Reported Purity ([2]; after 7 days at 80° C.): 98.33 Area %
Total impurities ([2]; after 7 days at 80° C.): 1.67 Area %
Reported Purity ([2]; after 7 days at ambient): 98.27 Area %
Total impurities ([2]; after 7 days at ambient): 1.73 Area %
Reported Purity [2, 7]: 98.39 Area %
Total impurities [2, 7]: 1.61 Area %
purity retained after stability storage (HPLC) ([2]; after 7 days at 40° C./75% RH (open vial), 80° C. (closed vial), ambient light (closed vial)): > 98 % relative area
HPLC purity ([2]; before stability testing (condition N/A)): 98.39 % relative area
Structure (SMILES): COc1cc(O[C@H]2C(C)(C)[C@H](NC(=O)c3ccc(N4CCC(CN5CCN(c6ccc(C(=O)N[C@H]7CCC(=O)NC7=O)c(F)c6)CC5)CC4)cc3)C2(C)C)ccc1C#N [free base Pattern 2]

XRPD form upon drying [3]: converted to Pattern 8
Structure (SMILES): COc1cc(O[C@H]2C(C)(C)[C@H](NC(=O)c3ccc(N4CCC(CN5CCN(c6ccc(C(=O)N[C@H]7CCC(=O)NC7=O)c(F)c6)CC5)CC4)cc3)C2(C)C)ccc1C#N [free base Pattern 5]

XRPD form post storage at 40° C./75% RH [1]: converts to Pattern 4
XRPD form post storage at 40° C./75% RH ([1]; listed as Pattern 9): converted to free base Pattern 4
Structure (SMILES): COc1cc(O[C@H]2C(C)(C)[C@H](NC(=O)c3ccc(N4CCC(CN5CCN(c6ccc(C(=O)N[C@H]7CCC(=O)NC7=O)c(F)c6)CC5)CC4)cc3)C2(C)C)ccc1C#N [free base Pattern 9]
